Columns and labels:
Assay type in all cases: cell-based
AMPK [1] = assay: AMPK activation, enzyme-linked immunosorbent assay
Summary of the method: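 Each compound's EC50 for AMPK activation was the endpoint. In a cell-based assay, AMPK activity was read out as the relative concentration of phosphorylated acetyl-CoA carboxylase, a product of AMPK, measured by enzyme-linked immunosorbent assay. Values fell into the ranges less than 1 μM, 1-10 μM, 10-20 μM, 20-50 μM, 50-100 μM, and >100 μM.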

[2] = system: Human liver cells (HepG2); assay: Reduction of glycogen content in liver cells (Amplex Red); conditions: HepG2 cells treated for 16 hours, Amplex Red (FIG. 4)
Description: The ability of compounds of the present invention to reduce the glycogen content in liver cells was determined using a functional assay. Human liver cells (HepG2) were seeded in a 96 well plate and on the next day were treated with compounds 1, 2, 94 and 95 for 16 hours. The glycogen content of the cells was determined using Amplex Red.

AMPK [3] = assay: Western blot assay for AMPK activity; conditions: gel electrophoresis data relative to GST-gAd (FIG. 3)
Description: Western blot assays for AMPK activity were performed on compounds 1, 2, 94 and 95. FIG. 3 presents gel electrophoresis data for compounds 1, 2, 94 and 95 relative to GST-gAd.

EC50 (AMPK [1]): < 1 µM
IC50 value, glycogen content [2]: sub-micromolar
Structure (SMILES): CC(C)(C)OC(=O)NCCCNC(=O)c1ccc(OC2CCN(Cc3ccc(C(F)(F)F)cc3)CC2)cc1 [Compound 95, tert-butyl 3-(4-(1-(4-(trifluoromethyl)benzyl)piperidin-4-yloxy)benzamido)propylcarbamate]
AMPK activity in the western blot assay (AMPK [3]): strong activity

— patent publication US8697727B2, “N-substituted-heterocycloalkyloxybenzamide compounds and methods of use” (Rigel Pharmaceuticals, Inc., priority 2006, dated 2014)
